Results: patent publication EP3885436A1, “POLYPEPTIDES WITH PEROXIDASE ACTIVITY” (Technische Universität Wien, priority 2020, dated 2021)
Like-named read-outs stand apart in the source and are kept apart here.

What was measured:
Format in all cases: biochemical
[1] = target: T1, horseradish peroxidase variant HRP N13D/N57S/N175S/N255D/N268D, produced in E. coli (Armoracia rusticana, UniProt P00433, N205S/N285D/N298D/N43D/N87S)
T1 construct: made in house
Experimental: (§1) Plant HRP Type VI-A (Cat. No.: P6782) was obtained from Sigma-Aldrich (St. Louis, MO, USA). All HRP variants produced in E. coli consisted of the sequence as set forth in SEQ ID NO: 2 with the indicated mutations unless specified otherwise.
(§2) For measurements with 3,3',5,5'-tetramethylbenzidine (TMB) as substrate, the reaction mixture in each well of the 96-well plate contained a saturating hydrogen peroxide concentration of 1 mM and varying TMB concentrations (20 - 550 µM) in 50 mM phosphate-citrate buffer pH 5 in a final volume of 200 µL. Protein sample (5 µL) was mixed with 175 µl TMB-buffer mixture and the reaction was started with 20 µl hydrogen peroxide solution (10 mM). The increase in absorption was followed at 652 nm for 60s at 30 °C in a Tecan Infinite M200 PRO instrument. The kinetic parameters were calculated using Sigma Plot software (Systat Software INC., San Jose, CA, USA) and an extinction coefficient of ε652 = 39 mM^-1 cm^-1 (see Josephy, et al. "The horseradish peroxidase-catalyzed oxidation of 3, 5, 3', 5'-tetramethylbenzidine. Free radical and charge-transfer complex intermediates." Journal of Biological Chemistry 257.7 (1982): 3669-3675).
(§3) The increase in absorption was followed at 420 nm for 120 s at 30 °C in a Tecan Infinite M200 PRO instrument. The kinetic parameters were calculated using Sigma Plot software (Systat Software INC., San Jose, CA, USA) and an extinction coefficient of ε420 = 36 mM^-1 cm^-1 (see Childs and Bardsley. "The steady-state kinetics of peroxidase with 2, 2'-azino-di-(3-ethyl-benzthiazoline-6-sulphonic acid) as chromogen." Biochemical Journal 145.1 (1975): 93-103).
as §3

[2] = target: T2, horseradish peroxidase variant HRP N13D/N57S/P146Q/N175S/N255D/N268D/N275K (mHRP, SEQ ID NO: 4), produced in E. coli (Armoracia rusticana, UniProt P00433, N205S/N285D/N298D/N305K/N43D/N87S/P176Q)
T2 construct: made in house
T2 sequence (P00433 31-338 N43D/N87S/P176Q/N205S/N285D/N298D/N305K): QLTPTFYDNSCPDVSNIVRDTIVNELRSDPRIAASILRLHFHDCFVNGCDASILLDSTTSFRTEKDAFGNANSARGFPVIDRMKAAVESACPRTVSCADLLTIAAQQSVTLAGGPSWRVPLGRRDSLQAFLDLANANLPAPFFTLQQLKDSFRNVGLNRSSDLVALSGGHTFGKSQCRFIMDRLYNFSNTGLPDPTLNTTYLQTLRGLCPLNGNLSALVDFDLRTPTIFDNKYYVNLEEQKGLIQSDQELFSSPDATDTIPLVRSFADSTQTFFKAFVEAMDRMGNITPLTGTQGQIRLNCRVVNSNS
Experimental: as §1, §2, §3, §3

[3] = target: T3, horseradish peroxidase, wild-type HRP (rHRP, variant C1A, SEQ ID NO: 2), produced in E. coli (Armoracia rusticana, UniProt P00433); experiment: Enzyme kinetic parameters, 96-well plate assay; conditions: substrate TMB (20 - 550 µM), 1 mM H2O2, 50 mM phosphate-citrate buffer pH 5, 30 °C; Table 6
T3 construct: made in house
T3 sequence (P00433 with tags, fused parts or gaps): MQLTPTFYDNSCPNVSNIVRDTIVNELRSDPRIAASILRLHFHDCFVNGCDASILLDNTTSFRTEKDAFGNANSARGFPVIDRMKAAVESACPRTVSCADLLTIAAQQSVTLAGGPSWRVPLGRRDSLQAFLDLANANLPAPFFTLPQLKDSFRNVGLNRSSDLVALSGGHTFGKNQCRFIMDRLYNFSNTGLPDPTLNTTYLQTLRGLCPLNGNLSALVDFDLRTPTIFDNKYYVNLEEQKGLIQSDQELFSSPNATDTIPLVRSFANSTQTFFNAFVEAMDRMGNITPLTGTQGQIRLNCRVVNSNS
Experimental: as §1, §2
(§4) The increase in absorption was followed at 420 nm for 120 s at 30 °C in a Tecan Infinite M200 PRO instrument. […]

[4] = target: T4, plant-derived HRP (pHRP), Plant HRP Type VI-A, horseradish peroxidase (Armoracia rusticana, UniProt P00433); experiment: Enzyme kinetic parameters, 96-well plate assay; conditions: substrate TMB (20 - 550 µM), 1 mM H2O2, 50 mM phosphate-citrate buffer pH 5, 30 °C; Table 6
T4 construct: The plant-derived enzyme undergoes post-translational modifications, resulting inter alia in a free N-terminus without an appended methionine; purchased Sigma-Aldrich P6782; host or cells: extracted from the plant
T4 sequence (P00433 31-338 limits assumed): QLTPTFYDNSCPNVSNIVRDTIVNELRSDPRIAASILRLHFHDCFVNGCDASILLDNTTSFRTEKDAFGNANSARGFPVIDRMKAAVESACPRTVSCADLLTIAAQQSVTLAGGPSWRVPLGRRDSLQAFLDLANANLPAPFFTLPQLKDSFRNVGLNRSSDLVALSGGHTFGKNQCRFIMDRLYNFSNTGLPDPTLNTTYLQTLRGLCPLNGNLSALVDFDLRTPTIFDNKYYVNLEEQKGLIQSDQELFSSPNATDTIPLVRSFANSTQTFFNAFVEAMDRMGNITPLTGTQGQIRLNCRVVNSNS
Experimental: as §1, §2, §4

[5] = substrate H2O2 (0.001 - 1 mM), 10 mM ABTS, 50 mM phosphate-citrate buffer pH 5, 30 °C, Table 3

T1 sequence (P00433 31-338 N43D/N87S/N205S/N285D/N298D): as the sequence (P00433 31-338 N43D/N87S/P176Q/N205S/N285D/N298D/N305K) above, with Q146P, K275N counted along it

SMILES: OO [H2O2, hydrogen peroxide]
- kcat [1, 5]: 1152 s⁻¹
- kcat [2, 5]: 1344 ± 22 s⁻¹

SMILES: Cc1cc(-c2cc(C)c(N)c(C)c2)cc(C)c1N [TMB, 3,3',5,5'-tetramethylbenzidine]
- kcat [3]: 4169 ± 207 s⁻¹
- kcat [4]: 4343 s⁻¹
- kcat ([1]; substrate TMB (20 - 550 µM), 1 mM H2O2, 50 mM phosphate-citrate buffer pH 5, 30 °C, Table 2): 3236 ± 193 s⁻¹
- kcat ([2]; substrate TMB (20 - 550 µM), 1 mM H2O2, 50 mM phosphate-citrate buffer pH 5, 30 °C, Table 2 (Example 3)): 4342 ± 292 s⁻¹
- kcat ([2]; substrate TMB (20 - 550 µM), 1 mM H2O2, 50 mM phosphate-citrate buffer pH 5, 30 °C, Table 6 (Example 4)): 4293 ± 171 s⁻¹
